Measurements from patent publication US11707464B2, “Methods of treating heavy menstrual bleeding” (AbbVie Inc., priority 2013, dated 2023).

Legend:
Assay type in all cases: in vivo, human
[1] = test system: premenopausal women with endometriosis; assay: Phase 2 endometriosis studies: endometriosis-associated pain efficacy
Experimental: Six Phase 2 randomized, double-blind, placebo-, and/or active-controlled, parallel-group, multiple dose studies were completed to evaluate elagolix as a treatment for endometriosis associated pain. Efficacy was assessed for dysmenorrhea (DYS), nonmenstrual pelvic pain (NMPP), dyspareunia, and general pelvic pain with a range of instruments.
Additional efficacy assessments included quality of life and the use of analgesics for control of endometriosis pain.
Across these Phase 2 studies, the enrollment criteria were similar and were intended to select premenopausal women aged 18 to 49 years of age with endometriosis confirmed by visual inspection (laparoscopy or laparotomy within 5 to 8 years of screening) who experienced moderate to severe endometriosis-associated pain. Women were included if they had regular menstrual cycles and no significant uterine fibroids or pelvic lesions.
Total daily doses of elagolix ranging from 75 to 250 mg were evaluated across a range of pain instruments measuring DYS, NMPP, or general pelvic pain (including patient global impression of change), during 12 or 24 weeks of treatment.

[2] = test system: premenopausal women with uterine fibroids and heavy menstrual bleeding; assay: Phase 2a uterine fibroid trial: fibroid volume and uterine volume; conditions: for percent of subjects who achieved a ≥25% reduction in uterine volume: placebo 9%; for percent of subjects who achieved a ≥25% reduction in fibroid volume: placebo 29%
Description: In another embodiment, the present invention relates to methods for reducing the fibroid volume in a subject with uterine fibroids. In one aspect, the methods of the present invention can be used to reduce the fibroid volume by greater than or equal to at least about 25%. In another aspect, the methods of the present invention can be used to reduce the fibroid volume in a subject with uterine fibroids. More specifically, the methods of the present invention can be used to reduce the fibroid volume in a subject with uterine fibroids by volume by greater than or equal to at least about 25%. In another aspect, the methods of the present invention are used to reduce the fibroid volume in a subject with uterine fibroids prior to hysterectomy, myomectomy, or uterine artery embolization. Methods for measuring fibroid volume are known in the art and include ultrasound and/or MRI.
In another embodiment, the present invention relates to methods for reducing the total uterine volume in a subject with uterine fibroids. The “total uterine volume” is the volume of the entire uterus. In one aspect, the methods of the present invention can be used to reduce the total uterine volume by greater than or equal to at least about 25%. In another aspect, the methods of the present invention can be used to reduce the total uterine volume in a subject with uterine fibroids. More specifically, the methods of the present invention can be used to reduce the total uterine volume in a subject with uterine fibroids by greater than or equal to at least about 25%. Methods for measuring total uterine volume are known in the art and include, ultrasound and/or MRI.
This example is a Phase 2a, multicenter, double-blind, placebo-controlled, randomized trial (N=280) with a 3-month treatment duration evaluating the safety and efficacy of Elagolix administered with or without Activella® in premenopausal women with uterine fibroids.
It evaluates the safety and efficacy of […] of Elagolix (100 mg BID, 200 mg BID, 200 mg BID plus low dose Activella® (a combination of 0.5 mg estradiol and 0.1 mg northindrone acetate), 300 mg BID, 300 mg BID plus 1.0 mg of Estrace and 200 mg cyclical Prometrium (collectively referred to as “EP”), 400 mg QD and 600 QD) versus placebo (PBO) to reduce uterine bleeding associated with uterine fibroids and to reduce fibroid volume and uterine volume in premenopausal women 20 to 49 years of age with heavy menstrual bleeding (HMB; >80 mL blood loss per menstrual cycle). The study involved the following six (6) cohorts:
There are a number of efficacy endpoints, but a composite endpoint consisting of two bleeding assessments was used to assess one measure of efficacy. It included the percent of subjects who achieved a menstrual blood loss (MBL) volume of <80 mL at the Final Month (last 28 days of treatment), and also achieved a ≥50% reduction in MBL volume from baseline to the Final Month (last 28 days of treatment) as measured by the Alkaline Hematin (AH) method. Eighty-five percent (85%), 97%, and 30% of subjects achieved the composite bleeding assessment endpoint in the 200 mg BID, 300 mg BID, and placebo groups, respectively (P<0.05 for 200 mg BID versus placebo in cohort 1, and 300 mg BID versus placebo in cohort 2). […]

women with endometriosis = assay: Phase 2 endometriosis studies: bone mineral density (BMD) over 24 weeks
Experimental: Changes in BMD at the lumbar spine and the femur were evaluated over 24 weeks in three Phase 2 endometriosis studies. […] While a larger effect on BMD is anticipated with a 200 or 300 mg BID regimen compared to that observed with 250 mg QD dosed for 6 months in previous studies, the magnitude of this effect is unknown.

[3] = test system: premenopausal women with endometriosis; assay: Phase 2 endometriosis studies: uterine bleeding by daily eDiary; conditions: for days of bleeding per month: eDiary
Experimental: The effects of elagolix on uterine bleeding were evaluated in the Phase 2 endometriosis program, with an analysis of the percentage of days of bleeding per month according to daily reporting of bleeding in an electronic diary (eDiary).

- subjects with decreases in BMD of the spine that exceeded 5% (women with endometriosis; 75 mg BID, 5/62 subjects, 24 weeks, largest study): 8.1%
- largest decrease in BMD of the spine (women with endometriosis; 150 mg QD and 75 mg BID, 24 weeks, largest study): no subject exceeded −8%
- subjects with decreases in BMD of the spine that exceeded 5% (women with endometriosis; 150 mg QD, 2/55 subjects, 24 weeks, largest study): 3.6%
- bone loss (women with endometriosis; doses that provide partial estrogen suppression (target dose 150 mg QD)): modest degree of bone loss
SMILES: COc1cccc(-c2c(C)n(Cc3c(F)cccc3C(F)(F)F)c(=O)n(C[C@H](NCCCC(=O)O)c3ccccc3)c2=O)c1F [Elagolix, 4-((R)-2-[5-(2-fluoro-3-methoxy-phenyl)-3-(2-fluoro-6-trifluoromethyl-benzyl)-4-methyl-2,6-dioxo-3,6-dihydro-2H-pyrimidin-1-yl]-1-phenyl-ethylamino)-butyric acid]
- quality of life assessments ([1]; Phase 2 endometriosis studies): improved quality of life assessments
- symptoms of dyspareunia ([1]; Phase 2 endometriosis studies): reduced
- effect on DYS and NMPP compared with DMPA-SC ([1]; daily dose of 150 mg): comparable effect
- effect on DYS and NMPP compared with leuprorelin ([1]; daily doses of 150 mg and 250 mg): less effect
- endometriosis-associated pain ([1]; daily doses of 100 to 250 mg, 12 or 24 weeks): clinically meaningful reductions
- overall usage of analgesics for pain control ([1]; elagolix treatment arms): decreased
- percent of subjects who achieved a ≥25% reduction in uterine volume ([2]; 200 mg BID): 50%
- percent of subjects who achieved a ≥25% reduction in fibroid volume ([2]; 200 mg BID): 63%
- percent of subjects who achieved a ≥25% reduction in uterine volume ([2]; 300 mg BID): 68%
- percent of subjects who achieved a ≥25% reduction in fibroid volume ([2]; 300 mg BID): 55%
- uterine and fibroid volumes (FIG. 4) ([2]; 300 mg BID, within 3 months): strongest effects
- days of bleeding per month ([3]; 250 mg QD compared with 150 mg QD): fewer days of bleeding
- bleeding intensity and intervals between bleeding episodes ([3]; majority of elagolix recipients, individual menstrual charts from eDiary): reduced bleeding intensity and often had extended intervals between bleeding episodes
- days of bleeding per month ([3]; overall, compared with placebo): fewer days of bleeding per month
